Test results reported in patent publication US20070004805A1, “Process for preparation of liquid dosage form containing sodium 4-phenylbutyrate” (Navinta LLC, priority 2005, published 2007).

Tests used:
[1] = solubility / achievable concentration of sodium 4-phenylbutyrate in water; assay type: physicochemical
Method: In another embodiment, this invention provides a process of preparing a supersaturated solution of sodium 4-phenylbutyrate in water by adding sufficient water to a known quantity of sodium 4-phenylbutyrate at an elevated temperature of about 30° to about 80° C. to produce a concentration of about 600 mg/mL.
As described in more detail below, this invention describes a process of preparing a highly concentrated solution of sodium 4-phenylbutyrate, having a concentration 500 mg/mL in water by dissolving 5 g of sodium 4-phenylbutyrate in about 3.5 mL water to yield a solution volume of about 10 mL. The temperature can be room temperature (25° C.) or an elevated temperature, preferably in the range of up to about 80° C. We found it is more difficult to make this solution at room temperature, but the solution can be made at a higher temperature and then cooled to room temperature without precipitating resulting. […] Therefore, due to likely micelle formation of sodium 4-phenylbutyrate (which we term the self-associated polymeric form), the high concentration of about 500 mg/mL can be achieved in solution. […] This novel invention thus provides a dosage form better able to help the patients presently administered with a high volume dosage of sodium 4-phenylbutyrate. […]

[2] = cold storage of the highly concentrated aqueous solution (freezing / precipitation); assay type: physicochemical
Method: As described in more detail below, this invention describes a process of preparing a highly concentrated solution of sodium 4-phenylbutyrate, having a concentration 500 mg/mL in water by dissolving 5 g of sodium 4-phenylbutyrate in about 3.5 mL water to yield a solution volume of about 10 mL. The temperature can be room temperature (25° C.) or an elevated temperature, preferably in the range of up to about 80° C. We found it is more difficult to make this solution at room temperature, but the solution can be made at a higher temperature and then cooled to room temperature without precipitating resulting. […] Therefore, due to likely micelle formation of sodium 4-phenylbutyrate (which we term the self-associated polymeric form), the high concentration of about 500 mg/mL can be achieved in solution. […] This novel invention thus provides a dosage form better able to help the patients presently administered with a high volume dosage of sodium 4-phenylbutyrate. This invention is not intended to be limited by this discussion of micellar phases, or the presence or absence of other high concentration phases (such as sponge or L3, worm-like micelles, sheets and other laminar phases) that may be formed depending on the particular processing conditions and/or materials used. In the follow description the term “solution” is used without regard to whether a micellar phase is present.
About 160 g of sodium 4-phenylbutyrate was transferred to a 250 mL volumetric flask to which was then added about 90 mL of water and agitated with heating at a temperature 70° C. to dissolve. The mixture was cooled to 25° C. and 0.5 g of sodium benzoate was added and mixed well. This solution was compounded to 250 mL with water.

- high concentration achieved in solution ([1]; in water, made at room temperature (25° C.) or up to about 80° C., then cooled without precipitation): about 500 mg/mL
- maximum drug concentration achieved in the formulation ([1]; supersaturated solution in aqueous medium): about 700 mg/mL
- freezing of the solution ([2]; 600 mg/mL solution at 0° C.): does not freeze
- freezing or precipitation upon storage ([2]; about 500 mg/mL solution, 0° C. for two days): did not freeze or precipitate out
- precipitation on further cooling ([2]; about 500 mg/mL solution, cooled to −4° C.): precipitation observed
SMILES: O=C([O-])CCCc1ccccc1.[Na+] [sodium 4-phenylbutyrate]
